Test results reported in ChEMBL document CHEMBL5584307, “Discovery of a Potent and Orally Bioavailable Xanthine Oxidase/Urate Transporter 1 Dual Inhibitor as a Potential Treatment for Hyperuricemia and Gout” (J Med Chem, 2024).

Assays:
[1] = molecular target: T1, Cytochrome P450 3A4 (Homo sapiens, UniProt P08684); assay: Induction of CYP3A4 in human hepatocytes at 50 uM incubated for 48 hrs with media containing compound renewal every 24 hrs followed by substrate addition measured after 30 mins by LC-MS/MS analysis; format: ADME, cell-based, Hepatocyte; settings: 48.5 h
[2] = Toxicity in cynomolgous monkey assessed as decrease in body weight at 90 to 200 mg/kg/day for 28 days consecutively; format: organism-based, Macaca fascicularis; settings: cynomolgus monkey, in vivo, 672 h; dose 90-200 mg/kg/day, time 28 day
[3] = molecular target: Voltage-gated inwardly rectifying potassium channel KCNH2 (Homo sapiens, UniProt Q12809); assay: Inhibition of hERG by electrophysiology; format: toxicity
[4] = test system: Sapajus apella; assay: Urate lowering effect in Tufted capuchin monkey assessed as serum xanthine level at 30 mg/kg/day, po qd for 3 days consecutively; format: functional; settings: time 3 day
[5] = test system: Sapajus apella; assay: Urate lowering effect in Tufted capuchin monkey assessed as fraction excretion of uric acid at 100 mg/kg/day, po qd for 3 days consecutively relative to control; format: functional; settings: time 3 day
[6] = Toxicity in rat assessed as increase in CHOL level at 120 mg/kg/day for 28 days; format: organism-based; settings: in vivo, 672 h, time 28 day
[7] = AUC (last) in Cynomolgous monkey at 1 mg/kg, iv measured upto 24 hrs by LC-MS/MS analysis; format: ADME, organism-based, Macaca fascicularis; settings: cynomolgus monkey, in vivo
[8] = Toxicity in Sprague-Dawley rat assessed as development-limiting effect; settings: in vivo
[9] = Toxicity in rat assessed as increase in salivation at 120 mg/kg/day for 28 days; format: organism-based; settings: in vivo, 672 h, time 28 day
[10] = Stability in human liver microsomes assessed as half life at 1 uM measured upto 60 mins in presence of NADPH by LC-MS/MS analysis; format: ADME, Microsome
[11] = Inhibition of SLC (unknown origin); parameters: species or system Homo sapiens
[12] = Toxicity in rat assessed as single-cellular necrosis of mucosal epithelium in colon at 120 mg/kg/day for 28 days by H and E staining based analysis; format: organism-based; settings: in vivo, 672 h, time 28 day
[13] = AUC (last) in Tufted capuchin monkey at 30 mg/kg, po measured for 24 hrs by LC-MS/MS analysis; format: ADME, organism-based; settings: sapajus apella, in vivo
[14] = AUC (last) in Beagle dog at 5 mg/kg, po measured upto 24 hrs by LC-MS/MS analysis; format: ADME, organism-based, Canis lupus familiaris; settings: in vivo
[15] = molecular target: T2, Cytochrome P450 1A2 (Homo sapiens, UniProt P05177); assay: Induction of CYP1A2 in human hepatocytes at 50 uM incubated for 48 hrs with media containing compound renewal every 24 hrs followed by substrate addition measured after 30 mins by LC-MS/MS analysis; format: ADME, cell-based, Hepatocyte; settings: 48.5 h
T2 sequence (P05177 whole entry): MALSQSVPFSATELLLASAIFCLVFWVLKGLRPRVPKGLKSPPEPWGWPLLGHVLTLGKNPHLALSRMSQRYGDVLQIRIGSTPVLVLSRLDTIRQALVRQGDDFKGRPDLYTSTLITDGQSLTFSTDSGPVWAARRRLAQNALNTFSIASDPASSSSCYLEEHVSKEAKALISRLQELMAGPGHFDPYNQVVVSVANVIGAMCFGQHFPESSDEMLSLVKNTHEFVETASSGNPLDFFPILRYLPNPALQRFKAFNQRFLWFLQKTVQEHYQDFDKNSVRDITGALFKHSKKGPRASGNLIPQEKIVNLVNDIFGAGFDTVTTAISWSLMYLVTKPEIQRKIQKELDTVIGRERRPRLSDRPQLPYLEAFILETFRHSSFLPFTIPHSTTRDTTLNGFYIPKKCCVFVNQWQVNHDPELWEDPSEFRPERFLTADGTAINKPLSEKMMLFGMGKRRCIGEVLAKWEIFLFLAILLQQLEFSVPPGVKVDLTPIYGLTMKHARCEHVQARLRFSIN

[16] = Genotoxicity in Salmonella typhimurium TA100 by Ames test; format: toxicity; settings: salmonella enterica subsp. enterica serovar typhimurium
[17] = Genotoxicity in Salmonella typhimurium TA1535 by Ames test; format: toxicity; settings: salmonella enterica subsp. enterica serovar typhimurium
[18] = molecular target: T1, Cytochrome P450 3A4; assay: Inhibition of CYP3A4 in human liver microsomes in presence of NADPH by LC-MS/MS analysis; format: ADME, Microsome
[19] = Clearance in Beagle dog at 1 mg/kg, iv measured upto 24 hrs by LC-MS/MS analysis; format: ADME, organism-based, Canis lupus familiaris; settings: in vivo
[20] = Cmax in Beagle dog at 5 mg/kg, po measured upto 24 hrs by LC-MS/MS analysis; format: ADME, organism-based, Canis lupus familiaris; settings: in vivo
[21] = AUC (last) in Tufted capuchin monkey at 10 mg/kg, po measured for 24 hrs by LC-MS/MS analysis; format: ADME, organism-based; settings: sapajus apella, in vivo
[22] = AUC (0 to t) in female rat at 60 mg/kg/day for 28 days; format: ADME, organism-based; settings: in vivo, time 28 day
[23] = Tmax in Tufted capuchin monkey at 100 mg/kg, po measured for 24 hrs by LC-MS/MS analysis; format: ADME, organism-based; settings: sapajus apella, in vivo
[24] = Oral bioavailability in Cynomolgous monkey at 5 mg/kg measured upto 24 hrs by LC-MS/MS analysis; format: ADME, organism-based, Macaca fascicularis; settings: cynomolgus monkey, in vivo
[25] = Cmax in Tufted capuchin monkey at 10 mg/kg, po measured for 24 hrs by LC-MS/MS analysis; format: ADME, organism-based; settings: sapajus apella, in vivo
[26] = Half life in Tufted capuchin monkey at 100 mg/kg, po measured for 24 hrs by LC-MS/MS analysis; format: ADME, organism-based; settings: sapajus apella, in vivo
[27] = AUC (last) in Beagle dog at 1 mg/kg, iv measured upto 24 hrs by LC-MS/MS analysis; format: ADME, organism-based, Canis lupus familiaris; settings: in vivo

T1 sequence (P08684 whole entry): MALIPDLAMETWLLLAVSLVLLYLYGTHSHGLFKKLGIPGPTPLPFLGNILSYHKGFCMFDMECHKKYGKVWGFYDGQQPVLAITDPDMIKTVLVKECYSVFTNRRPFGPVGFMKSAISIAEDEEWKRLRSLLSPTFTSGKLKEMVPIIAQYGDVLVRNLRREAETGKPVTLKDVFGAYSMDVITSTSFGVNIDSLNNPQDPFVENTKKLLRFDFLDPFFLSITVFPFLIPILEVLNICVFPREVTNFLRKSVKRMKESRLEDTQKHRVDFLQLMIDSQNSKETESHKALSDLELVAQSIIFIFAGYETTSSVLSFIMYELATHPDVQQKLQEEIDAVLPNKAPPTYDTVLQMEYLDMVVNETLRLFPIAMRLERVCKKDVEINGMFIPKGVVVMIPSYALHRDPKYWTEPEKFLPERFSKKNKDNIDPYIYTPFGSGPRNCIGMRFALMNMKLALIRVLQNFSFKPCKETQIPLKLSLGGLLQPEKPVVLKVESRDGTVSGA
Voltage-gated inwardly rectifying potassium channel KCNH2, sequence (Q12809 whole entry): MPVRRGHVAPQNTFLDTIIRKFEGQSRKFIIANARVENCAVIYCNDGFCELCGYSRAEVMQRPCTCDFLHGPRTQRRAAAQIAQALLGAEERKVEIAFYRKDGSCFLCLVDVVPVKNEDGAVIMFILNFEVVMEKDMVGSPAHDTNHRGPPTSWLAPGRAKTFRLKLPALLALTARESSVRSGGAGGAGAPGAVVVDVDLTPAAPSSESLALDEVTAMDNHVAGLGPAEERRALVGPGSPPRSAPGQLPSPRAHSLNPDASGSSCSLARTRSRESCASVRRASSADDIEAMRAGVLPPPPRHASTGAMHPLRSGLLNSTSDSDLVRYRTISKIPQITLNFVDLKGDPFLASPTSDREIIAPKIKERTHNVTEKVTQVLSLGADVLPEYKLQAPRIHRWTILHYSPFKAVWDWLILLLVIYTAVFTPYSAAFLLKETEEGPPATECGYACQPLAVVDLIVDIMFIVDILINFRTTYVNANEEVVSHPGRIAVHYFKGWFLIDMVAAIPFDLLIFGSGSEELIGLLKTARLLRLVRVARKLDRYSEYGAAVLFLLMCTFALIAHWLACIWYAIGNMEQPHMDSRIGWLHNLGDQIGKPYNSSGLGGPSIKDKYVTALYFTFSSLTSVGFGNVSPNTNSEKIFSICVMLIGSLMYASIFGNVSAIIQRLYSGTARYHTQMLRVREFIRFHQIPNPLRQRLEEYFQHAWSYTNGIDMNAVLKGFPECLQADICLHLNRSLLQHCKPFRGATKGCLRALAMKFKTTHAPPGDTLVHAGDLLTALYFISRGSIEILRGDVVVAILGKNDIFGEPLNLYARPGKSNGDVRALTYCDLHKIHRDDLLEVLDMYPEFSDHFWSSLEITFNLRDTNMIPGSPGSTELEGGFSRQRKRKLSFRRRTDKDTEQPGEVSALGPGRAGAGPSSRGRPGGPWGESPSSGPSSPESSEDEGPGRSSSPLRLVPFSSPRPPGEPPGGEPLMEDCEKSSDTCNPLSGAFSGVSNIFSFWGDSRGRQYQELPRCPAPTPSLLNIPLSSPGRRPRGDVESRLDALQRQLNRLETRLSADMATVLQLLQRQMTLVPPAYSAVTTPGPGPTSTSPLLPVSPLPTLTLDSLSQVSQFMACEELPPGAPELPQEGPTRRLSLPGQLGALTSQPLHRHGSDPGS

In the case of `N#Cc1cc(-c2ccc(C(=O)O)c(O)c2)c2oc(F)cc2c1`, the Activity [1] is reported as < 20%, the Activity [2] is reported as “Toxic” and the IC50 [3] is reported as > 52 µM. The Activity [4] was 6.19 µg·h/mL, the Activity [5] was 23.55% and the Activity [6] was “Toxic”. The AUC(0-t) at 24 h [7] was 16.1 µg·h/mL, the Activity [8] was “Non-Toxic” and the Activity [9] was “Toxic”. The half-life at 1 µM [10] was 3.75 h, the IC50 [11] was > 0.628 µM and the Activity [12] was “Toxic”. For the same compound, the AUC(0-t) at 24 h [13] was 31.6 µg·h/mL, the AUC(0-t) at 24 h [14] was 11.5 µg·h/mL and the Activity [15] was < 20%. For the same compound, the Activity [16] was “Non-Toxic”, the Activity [17] was “Non-Toxic” and the IC50 [18] was > 50 µM. It also gave a clearance [19] of 5.07 mL/min/kg, a Cmax [20] of 2530 ng/mL and an AUC(0-t) at 24 h [21] of 4.34 µg·h/mL. For the same compound, the AUC(0-t) at 672 h [22] was 2390 µg·h/mL, the Tmax [23] was 0.9 h and the bioavailability [24] was 42.4%. It also gave a Cmax [25] of 2470 ng/mL, a half-life [26] of 3.21 h and an AUC(0-t) at 24 h [27] of 3.13 µg·h/mL.
